Data reported in US6214838A, “Thienodipyridine derivatives, production and use thereof” (Takeda Chemical Industries, Ltd., priority 1998, dated 2001).

Columns and labels:
Rat Adjuvant Arthritis = experiment: Action Against Rat Adjuvant Arthritis (paw swelling suppression); type: in vivo, rat (male Lewis); conditions: 3.13 mg/kg once daily for 14 days, suspension in 0.5% methyl cellulose; left hind paw volume at day 14; N=6; **: p < 0.05 vs control (Dunnett's test)
[1] = Stability Against Metabolism by Liver Microsome; type: in vitro ADME; conditions: dog liver microsome, NADPH-producing system, phosphate buffer pH 7.4, 37° C.; n=2, mean
Procedure: Stability Against Metabolism by Liver Microsome:
A dog liver microsome was prepared by a standard method. In a phosphate buffer (pH 7.4), a test substance, a liver microsome and NADPH-producing system [0.5 mM, β-NADP (NADP: nicotinamide adenine dinucleotide phosphate), 1 mM magnesium chloride, 5 mM glucose-6-phosphate, 150units/ml glucose-6-phosphate dehydrogenase (each as final concentration in reaction system)] were mixed and incubated at 37° C. The concentration of the test substance after the discontinuation of the reaction was determined by high pressure liquid chromatography to obtain % residue (n=2, mean).

SMILES | Swelling suppression rate (%) (Rat Adjuvant Arthritis) | Residue (%) [1] [%]
COc1ccc(-c2c(Br)c(CN3C(=O)CCC3=O)nc3sc4c(c23)CCNC4)cc1 [Example 4, 3-bromo-5,6,7,8-tetrahydro-4-(4-methoxyphenyl)-2-(succinimidomethyl)thieno[2,3-b:5,4-c']dipyridine] | 85 | 
COc1ccc(-c2c(Cl)c(CN3C(=O)CCC3=O)nc3sc4c(c23)CCNC4)cc1 [Example 1, 3-chloro-5,6,7,8-tetrahydro-4-(4-methoxyphenyl)-2-(succinimidomethyl)thieno[2,3-b:5,4-c']dipyridine] | 94 | 90.5
COc1ccc(-c2c(Cl)c(CN3C(=O)CCC3=O)nc3sc4c(c23)CCNC4)cc1OC [Example 2, 3-chloro-4-(3,4-dimethoxyphenyl)-5,6,7,8-tetrahydro-2-(succinimidomethyl)thieno[2,3-b:5,4-c']dipyridine] | 92 | 87.8
O=C1CCC(=O)N1Cc1nc2sc3c(c2c(-c2ccc(O)cc2)c1Cl)CCNC3 [Example 15, 3-chloro-4-(4-hydroxyphenyl)-5,6,7,8-tetrahydro-2-(succinimidomethyl)thieno[2,3-b:5,4-c']dipyridine] |  | 96.3
COc1ccc(-c2c(Cl)c(CN3C(=O)CCC3=O)nc3sc4c(c23)CCN(C(C)=O)C4)cc1OC [Example 18, 7-acetyl-3-chloro-4-(3,4-dimethoxyphenyl)-5,6,7,8-tetrahydro-2-(succinimidomethyl)thieno[2,3-b:5,4-c']dipyridine] | 92 | 
COc1cc(-c2c(Cl)c(CN3C(=O)CCC3=O)nc3sc4c(c23)CCN(C(C)=O)C4)ccc1O [Example 22, 7-acetyl-3-chloro-5,6,7,8-tetrahydro-4-(4-hydroxy-3-methoxyphenyl)-2-(succinimidomethyl)thieno[2,3-b:5,4-c']dipyridine] | 75 | 
CCOc1ccc(-c2c(Cl)c(CN3C(=O)CCC3=O)nc3sc4c(c23)CCNC4)cc1 [Example 11, 3-chloro-4-(4-ethoxyphenyl)-5,6,7,8-tetrahydro-2-(succinimidomethyl)thieno[2,3-b:5,4-c']dipyridine] | 98 | 94.1
